Data on 3 molecules can be found in article PMC10540603 (Biochemical and biophysical research communications, 2022).

The structures appear in SMILES notation. Numbering of substitutions follows the chain as printed.

For one assay, the target named is T1, CquiOR32/CquiOrco (Culex quinquefasciatus, UniProt A0A0K0KUF8).
T1 sequence (A0A0K0KUF8 1-397): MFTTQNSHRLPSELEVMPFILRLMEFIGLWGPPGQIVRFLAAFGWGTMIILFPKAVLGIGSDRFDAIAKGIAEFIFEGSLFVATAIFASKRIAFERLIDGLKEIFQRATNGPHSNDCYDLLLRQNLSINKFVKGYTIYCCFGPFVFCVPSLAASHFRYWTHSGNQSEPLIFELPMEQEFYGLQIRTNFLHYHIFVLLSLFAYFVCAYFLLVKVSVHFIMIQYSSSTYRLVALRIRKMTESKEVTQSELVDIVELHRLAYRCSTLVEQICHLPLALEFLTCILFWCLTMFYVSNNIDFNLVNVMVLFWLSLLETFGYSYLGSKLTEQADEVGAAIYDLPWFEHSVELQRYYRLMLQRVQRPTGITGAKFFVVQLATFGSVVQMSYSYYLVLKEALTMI
T1 sequence (UPI0018E3CDA7 1-480 partner): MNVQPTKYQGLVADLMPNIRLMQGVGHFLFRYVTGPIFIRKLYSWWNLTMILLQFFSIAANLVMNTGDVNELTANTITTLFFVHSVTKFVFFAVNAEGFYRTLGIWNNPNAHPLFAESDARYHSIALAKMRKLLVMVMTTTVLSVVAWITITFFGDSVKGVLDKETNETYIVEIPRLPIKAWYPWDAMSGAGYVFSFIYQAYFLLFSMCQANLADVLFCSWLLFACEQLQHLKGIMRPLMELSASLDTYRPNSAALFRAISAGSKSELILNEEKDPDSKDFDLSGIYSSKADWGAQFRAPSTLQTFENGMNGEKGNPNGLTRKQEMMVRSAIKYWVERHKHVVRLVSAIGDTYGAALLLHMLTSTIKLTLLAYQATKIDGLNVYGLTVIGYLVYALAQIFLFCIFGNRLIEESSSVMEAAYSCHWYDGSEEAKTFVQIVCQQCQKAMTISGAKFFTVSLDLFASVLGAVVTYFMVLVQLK
Kind of assay: two-electrode voltage clamp, Xenopus oocytes. It counts as cell-based. The conditions noted are these: 1 mM source dose, -80 mV, pH 7.6.

A further assay deals with T2, CquiOrco (Culex quinquefasciatus, UniProt Q309I4).
T2 sequence (Q309I4 1-480): T1 sequence (UPI0018E3CDA7 1-480 partner) with E267K, I399V
Kind of assay: two-electrode voltage clamp, Xenopus oocytes. The note with it: agonist; coreceptor expressed alone; pH 7.6. It counts as cell-based. On the technique in general: Two-electrode voltage clamp holds a large cell at a set potential and records current.

Turning to `COC(=O)c1ccccc1O` [methyl salicylate], the “two-electrode voltage clamp, Xenopus oocytes” value (“two-electrode voltage clamp” below) at CquiOR32/CquiOrco (agonist, inward currents) is “Methyl salicylate-elicited inward currents recorded with CquiOR32/CquiOrco-expressing oocytes”.
Regarding `CCn1c(SCC(=O)Nc2ccc(C(C)C)cc2)nnc1-c1ccncc1` [OLC12, 2-{[4-Ethyl-5-(4-pyridinyl)-4H-1,2,4-triazol-3-yl]sulfanyl}-N-(4-isopropylphenyl)acetamide], at CquiOrco, the “two-electrode voltage clamp” value was “CquiOrco-expressing oocytes generated inward currents when challenged with OLC12”.
Turning to `CC12CCC(C1)C(C)(C)C2=O` (stereo not drawn) [fenchone], on CquiOR32/CquiOrco (inhibitor, outward currents), the “two-electrode voltage clamp” value was “more prominent than the outward currents elicited by fenchone and eucalyptol”.
